In patent US20240342348A1, “MEDICAL DEVICES INCLUDING THERAPEUTIC COATINGS FOR LOCAL DELIVERY OF A DIRECT ANTICOAGULANT” (Boston Scientific Scimed, Inc., priority 2023, published 2024):

Key:
[1] = Solubility of crystalline drug in water; type: physicochemical
[2] = crystalline drug; cited from earlier work
PTS = details: oral; cited from earlier work

water solubility relative to paclitaxel and everolimus [1]: approximately 10 times
SMILES: O=C(NC[C@H]1CN(c2ccc(N3CCOCC3=O)cc2)C(=O)O1)c1ccc(Cl)s1 [rivaroxaban, (S)-5-Chloro-N-((2-oxo-3-(4-(3-oxomorpholino)phenyl)oxazolidin-5-yl)methyl)thiophene-2-carboxamide]
solubility in water [2]: about 3 μg drug per mL water
risk of PTS (PTS): significantly reduces the risk of PTS
